Results taken from article PMC9401600 (Chemmedchem, 2022).

Assays:
PAMPA‐BBB assay = format: in vitro ADME; settings: for predictive penetration in the CNS: PAMPA‐BBB classification; for Papp: pig, PAMPA‐BBB, PBS:EtOH (70 : 30), read-out: Permeability (Pe) experimental value
Protocol: To evaluate the brain penetration of the different compounds, a parallel artificial membrane permeation assay for BBB was used, following the method described by Di et al..[33] The in vitro Pe of fourteen commercial drugs through lipid extract of porcine brain membrane together with the test compounds were determined. Commercial drugs and assayed compounds were tested using a mixture of PBS:EtOH (70 : 30).

EHMT1 (GLP) = target: T1, EHMT1 (GLP) (Homo sapiens, UniProt Q9H9B1); test: EHMT1 (GLP) chemiluminescent assay; format: biochemical; settings: 0.01 μM to 10 μM
T1 construct: purchased
T1 sequence (Q9H9B1 1-1298): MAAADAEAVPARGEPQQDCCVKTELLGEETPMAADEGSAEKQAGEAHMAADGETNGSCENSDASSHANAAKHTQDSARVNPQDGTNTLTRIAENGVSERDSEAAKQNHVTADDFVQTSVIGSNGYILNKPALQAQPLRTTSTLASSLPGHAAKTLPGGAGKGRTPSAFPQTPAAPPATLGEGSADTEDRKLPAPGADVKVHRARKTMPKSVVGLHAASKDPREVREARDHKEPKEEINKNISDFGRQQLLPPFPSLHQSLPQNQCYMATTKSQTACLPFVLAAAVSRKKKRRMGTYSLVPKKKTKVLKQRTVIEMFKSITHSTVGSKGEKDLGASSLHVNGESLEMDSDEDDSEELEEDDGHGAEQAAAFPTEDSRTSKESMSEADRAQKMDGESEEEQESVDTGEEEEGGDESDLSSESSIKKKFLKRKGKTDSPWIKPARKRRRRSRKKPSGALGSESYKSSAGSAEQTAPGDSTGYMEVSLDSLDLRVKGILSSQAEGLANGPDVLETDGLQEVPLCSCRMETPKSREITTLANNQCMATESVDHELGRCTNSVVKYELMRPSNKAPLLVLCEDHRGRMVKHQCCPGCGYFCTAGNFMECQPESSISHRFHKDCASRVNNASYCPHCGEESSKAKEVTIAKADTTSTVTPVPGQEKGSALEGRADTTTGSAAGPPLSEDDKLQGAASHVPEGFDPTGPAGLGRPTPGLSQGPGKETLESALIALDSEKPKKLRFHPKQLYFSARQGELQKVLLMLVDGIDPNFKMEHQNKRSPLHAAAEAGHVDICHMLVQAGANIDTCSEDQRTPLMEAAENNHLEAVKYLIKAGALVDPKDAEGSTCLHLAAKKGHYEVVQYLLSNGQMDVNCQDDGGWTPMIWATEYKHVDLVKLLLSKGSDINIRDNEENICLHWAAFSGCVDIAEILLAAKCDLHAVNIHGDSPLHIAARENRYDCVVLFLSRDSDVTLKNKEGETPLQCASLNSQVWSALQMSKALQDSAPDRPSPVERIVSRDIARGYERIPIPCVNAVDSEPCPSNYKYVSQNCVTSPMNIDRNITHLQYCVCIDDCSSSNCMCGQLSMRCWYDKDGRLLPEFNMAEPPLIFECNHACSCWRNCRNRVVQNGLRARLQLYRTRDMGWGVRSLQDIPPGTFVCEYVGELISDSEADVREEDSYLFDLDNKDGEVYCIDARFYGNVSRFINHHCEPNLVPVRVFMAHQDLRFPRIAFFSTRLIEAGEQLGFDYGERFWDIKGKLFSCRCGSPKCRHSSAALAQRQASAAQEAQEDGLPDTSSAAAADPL
Protocol: Last, but not least, further characterization of the best candidates was performed assessing their selectivity. Thus, we tested them against EHMT1 (G9a‐like protein, GLP). […] However, they presented a very low percentage, and furthermore this trend was not observed at high doses.
The assay was carried out using EHMT1 (GLP) Chemiluminescent Assay kit. Compounds were added on a 96‐well plate precoated with histone substrate supplied by kit. 30 μL of master mixture SAM were added and the reaction was initiated adding 20 μL of diluted EHMT1 (GLP) enzyme. The reaction was incubated at room temperature (RT) for 1 hour. The plate was washed three times with 200 μl TBST buffer. 100 μL of Blocking buffer were added to every well and the plate was incubated at RT for 10 minutes with shaking. Supernatant was removed and 100 μl of Primary antibody were added per well. The plate was incubated at RT for 1 hour with slow shaking. The plate was washed three times with 200 μl TBST buffer. 100 μL of Blocking buffer were added to every well and the plate was incubated at RT for 10 minutes with shaking. 100 μl of Secondary HRP‐labeled antibody were added per well and the plate was incubated at RT for 30 minutes with slow shaking. The plate was washed three times with 200 μl TBST buffer. Finally, 100 μl of substrate mix were added and the luminescence was measurement with integration time of 1 second in Perkin Elmer EnSpire Multimode plate reader.

C. elegans strain CL2006 = test: Locomotion assay (motor index); format: in vivo, Caenorhabditis elegans; settings: CL2006 worms, 0.001-1 μM, chronic treatment, compared with UNC0638
Protocol: One of the best‐characterized transgenic AD strains in C. elegans is the CL2006 strain, which contains the Punc‐54::Aβ1–42 transgene, showing a progressive adult‐onset paralysis. Then, to establish a dose‐response profile, the pharmacological impact of G9a inhibition was evaluated in a locomotion assay with this C. elegans strain. We performed a motility assay where animals were placed in the center of a seeded plate and allowed to explore the environment freely. […] N2 (WT), and CL2006 strain were treated with dimethyl sulfoxide (DMSO) 1 %, used as a vehicle, which should not cause a relevant locomotor defective phenotype. […] The motor index for each condition was calculated using the motor performance of Bristol (N2) (WT, 100 %) and the transgenic AD strain (CL2006, 0 %) animals as reference.
Locomotion assay of G9a inhibitors was assessed to obtain dose‐response profile, evaluating the impact of the pharmacology treatment in motor dysfunction presented by the transgenic strains CL2006. Nematodes were synchronized by alkaline hypochlorite treatment, and drug assay was performed as described above, except for the OP50 bacteria OD595 adjusted to 0.9, and the duration of the treatment was 5 days. N2 (WT), and the transgenic strain CL2006 were treated in liquid media for 4 days at 20 °C and 180 rpm, starting at the L1 stage. On day 5 of age, worms were transferred from the 96‐well plates onto an unseeded NGM plate for 45 minutes before starting the trial, allowing the plates to dry and worms. Locomotion assays were performed in 30 mm NGM plates, in which the whole surface of the plate was covered by OP50. 5 to 10 adult nematodes were placed in the center of a circle (with 1 cm of diameter) in the seeded 30 mm NGM plates. After 1 min, the number of animals remaining inside the circle was scored as a locomotor defect. Motor behavior assays were run in triplicates (n=3), with a total of at least 100 animals tested per compound concentration. Motor index establishes a score where treated animals showing the same motor defect as CL2006 have an index of 0 %. […] All the results shown in the figures are calculated using the following formula: Motorindex(%)=(LDCL2006vehicle-LDCL2006drug)/(LDCL2006vehicle-LDWTvehicle)×100 LD=locomotiondefective

Papp (PAMPA‐BBB assay) [×10⁻⁶ cm/s] | SMILES | predictive penetration in the CNS (PAMPA‐BBB assay) | activity against EHMT1 (in words) (EHMT1 (GLP)) | motor index dose‐response profile (in words) (C. elegans strain CL2006)
2.2 ± 0.1 | Cc1cc(N2CCN(Cc3cc(CN4CCCC4)cs3)CC2)nc(N)n1 [E] | CNS+/‐ | did not inhibit EHMT1 | ameliorating the paralysis presented by CL2006
10.9 ± 0.4 | CCN1C[C@H](NC(=O)c2cc3cc(Cl)ccc3[nH]2)[C@@H](OC)C1 [F, 5‐chloro‐N‐((3S,4S)‐1‐ethyl‐4‐methoxypyrrolidin‐3‐yl)‐1H‐indole‐2‐carboxamide] | CNS+ (compounds of high BBB permeation (CNS+): Pe (10^−6 cm ⋅ s^−1) >5.14) | slight activity against EHMT1 at low doses | ameliorating the paralysis presented by CL2006
17.4 ± 2.4 | Cc1cc(CNC(=O)C(c2ccc(F)cc2)N2CCCCC2)cnc1C (stereo not drawn) [H] | CNS+ (compounds of high BBB permeation (CNS+): Pe (10^−6 cm ⋅ s^−1) >5.14) | slight activity against EHMT1 at low doses | ameliorating the paralysis presented by CL2006
